Data from patent publication US6747038B2, “Phenanthridine derivatives and antitumoral medicaments containing phenanthridine” (priority 2000, dated 2004).
Where a name gives a salt, the structure may show the parent alone.

Tested on: panel of 12 human pathogenic tumour cell lines of six types of cancer
Test: in vivo-hollow fiber assay of the National Cancer Institute
Details: for NCI criteria fulfilled: (a) total points higher than 20, (b) subcutaneous points higher than 8, (c) cell kill characteristics; for Points (sum) / Points (intraperitoneal) / Points (subcutaneous): NCI point system; for Points (sum): 2 points per administration giving at least 50% reduction of tumour cell growth, maximum 96, hollow fibers in nude mice, intraperitoneal plus subcutaneous, 4 doses at 24 h intervals, two concentrations; for Points (intraperitoneal): intraperitoneally implanted hollow fibers in nude mice; for Points (subcutaneous): subcutaneously implanted hollow fibers in nude mice; for Cell killing properties: vital tumour cell mass of at least one cell line less than the starting value after treatment
Protocol: In order to examine the pharmacological properties, these compounds (BP-7, BP-8, BP-D8) as well as 6-Amino-11-(2′,4′-dimethoxyphenyl)benzo[c]-phenanthridine perchlorate (BP-D3) [PCT/WO 97/14683] were examined in an “in vivo-hollow fiber assay” of the National Cancer Institute (NCI), Bethesda, Md., USA.
Compounds were tested against a panel of 12 human pathogenic tumour cell lines of six types of cancer (non-small cell lung cancer, melanoma, breast cancer, ovarian cancer, colon cancer, CNS cancer).
The cell lines were cultivated in polyvinylidenfluorine hollow fibers which are permeable to small molecules and which were implanted into nude mice. Three hollow fibers were implanted every animal intraperitoneally and subcutaneously which means three tumor cell lines could be examined in each animal in two physiological sites.
The animals were treated four times with a dose of the test substance with a time interval of 24 hours. For this purpose, every compound was administered at two concentrations. At the end of the treatment the hollow fibers were regained and the number of the vital tumour cells or rather of the protein biomass was determined photometrically by an MTT-Formazan-Assay in order to determine the inhibition of growth by the phenanthridines. Mice with prepaired tumour cell cultures in hollow fibers which were only treated by solvent served as control.
The evaluation of test results is based on a point system given by NCI.
Each administration of a test substance which leads to a reduction of the tumour cell growth of at least 50% is given a score of two points. The maximum number of points for one compound is therefore 96 points (12 cell lines*2 implantation sites*2 concentrations of the test substance*2 points). In addition for further specification the results on subcutaneously and intraperitoneally implanted hollow fibers are treated separately. There are three criteria given by NCI. A test substance in the “in vivo-hollow fiber assay” has to fulfill at least one criterion in order to be regarded as suitable for further tests:
(a) the total sum of the points from intraperitoneal and subcutaneous application must be higher than 20.
(b) The total sum of the points of the subcutaneous application must be higher than 8.
(c) After the treatment the vital tumour cell mass of at least one cell line must be less than the starting value (cell kill characteristics).

| SMILES | NCI criteria fulfilled | Points (sum) [Points] | activity in the in vivo-hollow fiber assay (compared with all tested phenanthridines) | Points (intraperitoneal) [Points] | Points (subcutaneous) [Points] | Cell killing properties |
| --- | --- | --- | --- | --- | --- | --- |
| COc1cc(-c2cc3ccccc3c3nc(N)c4ccccc4c23)cc(OC)c1OC [BP-D7, 6-Amino-11-(3′,4′,5′-trimethoxyphenyl)benzo[c]phenanthridine perchlorate] | a, b and c | 28 | highest activity | 14 | 14 | Yes |
| COc1ccc(C2Cc3ccccc3-c3nc(N)c4ccccc4c32)c(OC)c1OC (stereo not drawn) [BP-8, 6-Amino-11,12dihydro-11-(2′,3′,4′-trimethoxyphenyl)benzo[c]-phenanthridine hydrochloride] | (b) and (c) | 20 | – | 10 | 10 | Yes |
| COc1ccc(-c2cc3ccccc3c3nc(N)c4ccccc4c23)c(OC)c1.[O-][Cl+3]([O-])([O-])O [BP-D3, 6-Amino-11-(2′,4′-dimethoxyphenyl)benzo[c]phenanthridine perchlorate, reference compound] | (c) only | 10 | – | 2 | 8 | Yes |
| COc1cc(C2Cc3ccccc3-c3nc(N)c4ccccc4c32)cc(OC)c1OC (stereo not drawn) [BP-7, 6-Amino-11,12dihydro-11-(3′,4′,5′-trimethoxyphenyl)benzo[c]-phenanthridine hydrochloride] | (b) and (c) | 16 | – | 6 | 10 | Yes |
